The source of these data is patent US20060247249A1 (priority 2005, published 2006).

Structures can show the parent of a compound that is named as a salt.

One assay deals with T1, α1A adrenoceptor (Rattus norvegicus, UniProt P43140).
T1 construct: from tissue; host or cells: rat submaxillary gland membranes
T1 sequence (P43140 1-466): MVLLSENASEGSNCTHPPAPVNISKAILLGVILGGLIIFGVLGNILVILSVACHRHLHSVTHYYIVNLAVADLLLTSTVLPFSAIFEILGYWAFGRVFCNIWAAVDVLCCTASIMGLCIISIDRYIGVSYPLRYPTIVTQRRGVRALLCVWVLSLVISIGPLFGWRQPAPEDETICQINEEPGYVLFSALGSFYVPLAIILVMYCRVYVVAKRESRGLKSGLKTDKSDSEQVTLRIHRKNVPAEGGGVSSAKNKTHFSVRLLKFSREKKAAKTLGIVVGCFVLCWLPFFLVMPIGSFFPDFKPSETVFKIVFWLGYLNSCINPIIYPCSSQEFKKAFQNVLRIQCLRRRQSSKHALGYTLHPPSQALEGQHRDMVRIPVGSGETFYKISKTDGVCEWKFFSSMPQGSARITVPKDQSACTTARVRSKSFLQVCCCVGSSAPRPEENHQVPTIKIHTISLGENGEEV
The assay can be described thus: Radioligand binding, [3H] prazosin displacement, rat submaxillary membranes. The conditions noted are these: for Ki: [3H] prazosin displacement, rat submaxillary membranes, read-out: Affinity for α1A (Rat Submaxillary), Ki; for α1B/α1A: ratio of binding affinities, rat liver vs rat submaxillary. As to the method: (§1) Receptor binding assays were performed using native α-adrenoceptors. The affinity of different compounds for α1A and α1B adrenoceptor subtypes was evaluated by studying their ability to displace specific [^3H] prazosin binding from the membranes of rat submaxillary and liver respectively (Michel et al, Br J. Pharmacol.; 1989; 98:883). The binding assays were performed according to U'Prichard et al. (Eur J Pharmacol., 1978; 50:87) with minor modifications.
(§2) Submaxillary glands were isolated immediately after sacrifice. The liver was perfused with buffer (Tris HCl 50 mM, NaCl 100 mM, 10 mM EDTA pH 7.4). The tissues were homogenised in 10 volumes of buffer (Tris HCl 50 mM, NaCl 100 mM, 10 mM EDTA pH 7.4). The homogenate was filtered through two layers of wet gauge and filtrate was centrifuged at 500 g for 10 min. The supernatant was subsequently centrifuged at 40,000 g for 45 min. The pellet thus obtained was resuspended in the same volume of assay buffer (Tris HCl 50 mM, 5 mM EDTA pH 7.4) and were stored at −70° C. until the time of assay.
(§3) The membrane homogenates (150-250 μg protein) were incubated in 250 μl of assay buffer (Tris HCl 50 mM, EDTA 5 mM, pH 7.4) at 24-25° C. for 1 hour. Non specific binding was determined in the presence of 300 nM prazosin. The incubation was terminated by vacuum filtration over GF/B fibre filters. The filters were then washed with ice cold 50 mM Tris HCl buffer (pH 7.4). The filtermats were dried and bound radioacivity retained on filters was counted. The IC50 and Kd were estimated by using the non linear curve fitting program using G Pad Prism software. The value of inhibition constant Ki was calculated from competitive binding studies by using Cheng & Prusoff equation (Cheng & Prusoff, Biochem Pharmacol, 1973,22: 3099), Ki=IC50/(1+L/Kd) where L is the concentration of [^3H] prazosin used in the particular experiment (Table I).

The next assay addresses T2, α1B adrenoceptor (Rattus norvegicus, UniProt P15823).
T2 construct: from tissue; host or cells: rat liver membranes
T2 sequence (P15823 1-515): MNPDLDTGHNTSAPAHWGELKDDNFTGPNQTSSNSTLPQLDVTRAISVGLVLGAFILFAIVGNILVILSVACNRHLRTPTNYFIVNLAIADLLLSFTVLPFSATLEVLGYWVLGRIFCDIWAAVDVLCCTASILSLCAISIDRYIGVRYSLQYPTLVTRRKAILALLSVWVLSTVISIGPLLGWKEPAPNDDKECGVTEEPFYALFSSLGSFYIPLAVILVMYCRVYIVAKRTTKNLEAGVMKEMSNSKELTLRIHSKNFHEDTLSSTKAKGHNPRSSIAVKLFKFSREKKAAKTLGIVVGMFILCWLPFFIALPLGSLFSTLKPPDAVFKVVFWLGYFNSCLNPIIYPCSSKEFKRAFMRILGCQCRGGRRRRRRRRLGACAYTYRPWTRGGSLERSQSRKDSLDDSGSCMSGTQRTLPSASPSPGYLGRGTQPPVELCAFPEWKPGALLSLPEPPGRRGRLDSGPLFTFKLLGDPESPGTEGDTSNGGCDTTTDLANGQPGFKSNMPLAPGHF
Put plainly: Radioligand binding, [3H] prazosin displacement, rat liver membranes. The conditions noted are these: read-out: Affinity for α1B (Rat Liver), Ki. The method, then:
as §1, §2, §3

For another assay, the target named is T3, spleen (α1B) (Rattus norvegicus, UniProt P15823).
T3 construct: from tissue; host or cells: isolated rat spleen (male Wistar)
T3 sequence (P15823 1-515): T2 sequence (P15823 1-515)
Put plainly: In vitro functional study, isolated rat spleen, antagonism of phenylepinephrine contraction. It is filed as biochemical. Particulars: compound at 0.1, 1 and 10 μM. The text has this: (§4) In order to study selectivity of action of these compounds towards different α-adrenoceptor subtypes, the ability of these compounds to antagonise aorta (α1D), prostate (α1A) and spleen (α1B) was studied. Aorta, prostrate and spleen tissues were isolated from urethane anaesthetized (1.5 g/kg) male wister rats. Isolated tissues were mounted in organ bath containing Krebs Henseleit buffer of the following composition (mM): NaCl 118; KCl 4.7; CaCl2 2.5; MgSO4 7H2O 1.2; NaHCO3 25; KH2PO4 1.2; glucose 11.5. Buffer was maintained at 37° C. and aereated with a mixture of 95% O2 and 5% CO2. A resting tension of 2 g (aorta) or 1 g (spleen and prostate) was applied to tissues. Contractile response was monitored using a force displacement transducer and recorded on chart recorders. Tissues were allowed to equilibrate for 2 hours. At the end of equilibration period, concentration response curves to norepinephrine (aorta) and phenylepinephrine (spleen and prostate) were obtained in the absence and presence of tested compound (at concentration of 0.1, 1 and 10 μM). Antagonist affinity was calculated and expressed as pKB values in Table II.

The target of the next assay is T4, aorta (α1D) (Rattus norvegicus, UniProt P23944).
T4 construct: Isolated tissues were mounted in organ bath containing Krebs Henseleit buffer; from tissue; host or cells: isolated rat aorta (male Wistar)
T4 sequence (P23944 1-561): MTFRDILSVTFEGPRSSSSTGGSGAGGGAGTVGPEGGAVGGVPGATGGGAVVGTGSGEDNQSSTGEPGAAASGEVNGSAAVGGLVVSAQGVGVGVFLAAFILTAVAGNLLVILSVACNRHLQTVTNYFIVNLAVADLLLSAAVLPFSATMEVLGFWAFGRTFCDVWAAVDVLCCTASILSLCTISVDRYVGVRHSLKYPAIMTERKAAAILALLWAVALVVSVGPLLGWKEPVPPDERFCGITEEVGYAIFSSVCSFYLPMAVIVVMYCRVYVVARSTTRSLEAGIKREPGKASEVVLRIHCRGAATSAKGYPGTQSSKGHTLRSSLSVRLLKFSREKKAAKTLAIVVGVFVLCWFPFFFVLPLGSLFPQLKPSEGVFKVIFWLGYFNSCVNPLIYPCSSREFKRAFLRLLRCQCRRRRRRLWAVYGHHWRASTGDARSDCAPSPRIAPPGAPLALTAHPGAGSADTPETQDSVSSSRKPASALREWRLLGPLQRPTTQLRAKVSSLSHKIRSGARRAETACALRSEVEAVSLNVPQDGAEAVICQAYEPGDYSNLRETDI
The assay can be described thus: In vitro functional study, isolated rat aorta, antagonism of norepinephrine contraction. It is filed as biochemical. Particulars: compound at 0.1, 1 and 10 μM.
Text: as §4

The next assay has as its target T5, prostate (α1A) (Rattus norvegicus, UniProt P43140).
T5 construct: from tissue; host or cells: isolated rat prostate (male Wistar)
T5 sequence (P43140 1-466): T1 sequence (P43140 1-466)
Put plainly: In vitro functional study, isolated rat prostate, antagonism of phenylepinephrine contraction. The class given is biochemical.
Text: as §4

The target of another assay is α1-adrenoceptor. Particulars: background statement; cited from earlier work.

What is called Ki is the equilibrium dissociation constant of an inhibitor or competing ligand from its target.

In the case of `CC(C)Oc1ccccc1N1CCN(CCCNC(=O)CCCC(=O)O)CC1`, the values for the Ki at α1A adrenoceptor and on α1B adrenoceptor were 777 nM and 2100 nM, respectively. In addition, the α1B/α1A at α1A adrenoceptor was determined as 3.

As for “1-Carboxy cyclohex-4-ene-2-[N-{3-(2-ethoxyphenyl)piperazin-1yl}-2-hydroxyphenyl]carboxamide [Compound No. 6]”, at α1A adrenoceptor, the Ki is 398 nM and the α1B/α1A is 3. Further, at α1B adrenoceptor, the Ki is 1240 nM.

On to “1-Carboxycyclohex-4-ene-2-[N-{3-(2-ethoxyphenyl)piperazin-1-yl}propyl]carboxamide [Compound No. 1]”, for which the “α1B (pKB)” value on spleen (α1B) is reported as 8.16. In addition, the “α1D (pKB)” value at aorta (α1D) amounted to 7.24. Moreover, the “Selectivity α1D/α1A” value at prostate (α1A) (functional assays, aorta vs prostate) is 9.5. For the same molecule, the “Selectivity α1B/α1A” value on prostate (α1A) (functional assays, spleen vs prostate) came out at 1.15. On prostate (α1A) (rat prostate, phenylepinephrine, compound at 0.1, 1 and 10 μM), the “α1A (pKB)” value is 8.22. At α1A adrenoceptor, the Ki amounted to 20 nM and the α1B/α1A was over 50. Further, the Ki at α1B adrenoceptor is over 1000 nM.

Take “1-Carboxymethylcyclohex-4-ene-2-[N-{3-(2-isopropoxyphenyl)piperazin-1-yl}-propyl]carboxamide hydrochloride [Compound No. 11]”: the Ki came to 3.15 nM at α1A adrenoceptor and 99 nM on α1B adrenoceptor. At α1A adrenoceptor, the α1B/α1A came to 31.

Regarding `CC(C)Oc1ccccc1N1CCN(CCCNC(=O)C2CC=CCC2C(=O)O)CC1` (centres unmarked) [Compound No. 2, 1-Carboxy cyclohex-4-ene-2-[N-{3-(2-isopropoxyphenyl)piperazin-1-yl}propyl]carboxamide], the results for the Ki on α1A adrenoceptor and on α1B adrenoceptor were 19 nM and over 1000 nM, respectively. Besides, the α1B/α1A on α1A adrenoceptor was over 53.

Turning to `COc1ccccc1N1CCN(CC(O)CNC(=O)C2CC=CCC2C(=O)O)CC1` (centres unmarked) [Compound No. 3], the Ki at α1A adrenoceptor and at α1B adrenoceptor was over 1000 nM in each case.

As to `O=C(O)C1CC=CCC1C(=O)NCC(O)CN1CCN(c2ccccc2O)CC1` (centres unmarked) [Compound No. 4], the Ki was 1890 nM at α1A adrenoceptor and 9740 nM on α1B adrenoceptor. In addition, on α1A adrenoceptor, the α1B/α1A is 5.

Consider `CC(C)Oc1ccccc1N1CCN(CC(O)CNC(=O)C2CC=CCC2C(=O)O)CC1` (centres unmarked) [Compound No. 5, 1-Carboxy cyclohex-4-ene-2-[N-{3-(2-isopropoxyphenyl)piperazin-1-yl}-2-hydroxypropyl]carboxamide], for which, at α1A adrenoceptor, the Ki was found to be 21 nM and the α1B/α1A was 84. Further, the inhibition constant Ki on α1B adrenoceptor worked out at 1760 nM.

Take `O=C(O)CCCC(=O)NCCCN1CCN(c2ccccc2O)CC1` [Compound No. 7, 5-[N-{3-(2-hydroxyphenyl)piperazin-1-yl}]-1-aminopropyl-5-oxo-pentan-1-oic acid]: at α1A adrenoceptor, the Ki worked out at 12600 nM and the α1B/α1A is listed as 1. For the same molecule, the Ki on α1B adrenoceptor is 13000 nM.

On to `O=C(O)C1CC=CCC1C(=O)NCCCN1CCN(c2ccccc2O)CC1` (centres unmarked) [Compound No. 8, 1-Carboxy cyclohex-4-ene-2-[N-{3-(2-hydroxyphenyl)piperazin-1-yl}propyl]carboxamide], for which the Ki at α1A adrenoceptor amounted to 593 nM; at α1B adrenoceptor it was 5080 nM. The α1B/α1A at α1A adrenoceptor was 9.

On to `COc1ccccc1N1CCN(CC(O)CNC(=O)CCCC(=O)O)CC1` (centres unmarked) [Compound No. 12], for which, at α1A adrenoceptor, the Ki was over 1000 nM and the α1B/α1A worked out at 1. The Ki at α1B adrenoceptor is over 10000 nM.

For the molecule `COC(=O)CCCC(=O)NCCCN1CCN(c2ccccc2OC)CC1` [hydrochloride], the values for the Ki at α1A adrenoceptor and on α1B adrenoceptor were 139 nM and over 1000 nM, respectively. The α1B/α1A on α1A adrenoceptor is over 7.

Take `COc1cc2nc(N3CCN(C(=O)c4ccco4)CC3)nc(N)c2cc1OC` [prazosin]: the “α1-adrenergic blocking activity (pKi)” value at α1-adrenoceptor is reported as over 8.
